Reference: paper PMC6429200, “Synthesis and Broad Antiviral Activity of Novel 2-aryl-isoindolin-1-ones towards Diverse Enterovirus A71 Clinical Isolates” (Molecules, 2019)
Like-named read-outs stand apart in the source and are kept apart here.

Experiments:
[1] = Cytotoxicity assay (CPE) on Vero cells; format: cell-based; conditions: African green monkey
Method: (§1) An in-vitro antiviral assay was established using the Africa monkey kidney cell line Vero which was infected with different EV-A71 clinical isolates (BrCr, H, Shenzhen98 and Jiangsu52). A total of 24 synthetic compounds were initially screened in such an assay to determine their inhibitory effect on virus replication at 3-fold diluted concentrations serial (400~0.18 μM). The 50% effective concentration (EC50) of each compound was calculated according to its inhibitory rate values with the Reed–Muench method. The 50% cytotoxic concentration (CC50) was defined as the concentration that inhibited 50% cellular growth in comparison with the controls. The selectivity index (SI) was calculated as CC50/EC50. […] Generally, the EV-A71 H strain was less sensitive to most of the active compounds as compared to the other virus strains.
African green monkey kidney (Vero) cells were purchased from the American Type Culture Collection (ATCC) and were cultured in minimum essential medium (MEM) supplemented with 10% fetal bovine serum (FBS) (GIBCO) and antibiotics (100 U/mL penicillin and […] streptomycin) at 37 °C in a 5% CO2 incubator.
The cytotoxic effects of compounds on Vero cells were detected by the cytopathic effect (CPE) assay. Briefly, cells (3 × 10^4 cells/well) were seeded into 96-well culture plates and incubated overnight. Then, the medium was removed and different concentrations of compounds were applied in triplicate. After 3 days of incubation, the CC50 was defined as the concentration that inhibited 50% cellular growth in comparison with the untreated controls, as calculated by the Reed–Muench method.

[2] = test system: EV-A71 strain BrCr; experiment: CPE inhibition assay for anti-EV-A71 in Vero cells, BrCr strain; format: cell-based, Enterovirus 71 (EV-A71); conditions: for BrCr SI: CC50/EC50; for EC50: Enterovirus A, EVA71, Vero cells, 100TCID50, 48 h
Method: as §1
(§2) EV-A71 strain ShenZhen98 (SZ98) was isolated from the throat swab sample of an HFMD case which occurred in 1998 in China. This was kindly provided by Dr. Qi Jin, Institute of Pathogen Biology, Chinese Academy of Medical Science and Peking Union Medical School, Beijing, China. EV-A71 strains BrCr (VR-1775) and H (VR-1432) were purchased from the ATCC. The EV-A71 strain JS52 was a kind gift from Dr. Xiangzhong Ye, Beijing Wantai Biological Pharmacy Enterprise Co., Ltd. EV-A71 were all passaged in Vero cells.
(§3) The anti-EV-A71 activity of compounds was determined by the CPE inhibition method. Briefly, cells (3 × 10^4 cells/well) were plated into 96-well culture plates for incubation for 24 h. The medium was then removed and cells were infected with EV-A71 with 100TCID50 (50% tissue culture infective doses) in serum-free medium for 1 h at 37 °C. Then, the unbound viruses were removed and various concentrations of compounds were supplemented and incubated for another 48 h. The EC50 was determined by the Reed–Muench method. The selectivity index was calculated as the ratio of CC50/EC50 [15].

[3] = test system: EV-A71 strain H; experiment: CPE inhibition assay for anti-EV-A71 in Vero cells, H strain; format: cell-based, Enterovirus 71 (EV-A71); conditions: for H SI: CC50/EC50; for EC50: Enterovirus A, EVA71, Vero cells, 100TCID50, 48 h
Method: as §1, §2, §3

[4] = test system: EV-A71 strain ShenZhen98 (SZ98); experiment: CPE inhibition assay for anti-EV-A71 in Vero cells, Shenzhen98 strain; format: cell-based, Enterovirus 71 (EV-A71); conditions: for Shenzhen98 SI: CC50/EC50; for EC50: Enterovirus A, EVA71, Vero cells, 100TCID50, 48 h
Method: as §1, §2, §3

[5] = test system: EV-A71 strain Jiangsu52 (JS52); experiment: CPE inhibition assay for anti-EV-A71 in Vero cells, Jiangsu52 strain; format: cell-based, Enterovirus 71 (EV-A71); conditions: for Jiangsu52 SI: CC50/EC50; for EC50: Enterovirus A, EVA71, Vero cells, 100TCID50, 48 h
Method: as §1, §2, §3

[6] = test system: four EV-A71 strains (BrCr, H, Shenzhen98, Jiangsu52); experiment: CPE inhibition assay, summary over four EV-A71 strains; format: cell-based, Enterovirus 71 (EV-A71); conditions: for EC50: Enterovirus A, EVA71, Vero, read-out: EC50 towards four EV-A71 strains
Method: as §1, §3

[7] = test system: EV71; design: method as in PMID 23519203; conditions: cited from earlier work
[8] = Vero cells, 3 days of incubation, Reed–Muench, read-out: CC50

With Cc1ccc(N2Cc3cc(N)ccc3C2=O)cc1 [Compound 6, 5-amino-2-(p-tolyl)isoindolin-1-one] the CC50 at 3 days [1, 8] was 173 ± 34 µM, the “BrCr SI” value [2] was 91 and the EC50 [2] was 1.89 ± 0.32 µM. The “H SI” value [3] was 82, the EC50 [3] was 2.11 ± 0.23 µM and the “Shenzhen98 SI” value [4] was 86. The EC50 [4] was 2 ± 0.25 µM, the “Jiangsu52 SI” value [5] was 91 and the EC50 [5] was 1.89 ± 0.32 µM. The EC50 [6] was under 10 µM.
For O=C1c2ccccc2CN1c1ccc(Br)cc1 [Compound A4, 2-(4-bromophenyl)isoindolin-1-one], the CC50 at 3 days [1, 8] was 173 ± 34 µM, the “BrCr SI” value [2] was 140 and the EC50 [2] was 1.23 ± 0.28 µM. For the same molecule, the “H SI” value [3] was 98, the EC50 [3] was 1.76 ± 0.19 µM and the “Shenzhen98 SI” value [4] was 98. For the same molecule, the EC50 [4] was 1.76 ± 0.15 µM, the “Jiangsu52 SI” value [5] was 131 and the EC50 [5] was 1.32 ± 0.22 µM. The “SI towards four EV-A71 strains” value ([6]; CC50/EC50, range over four strains) was 98–199, the EC50 [6] was 1.23 to 1.76 µM and the “EC50 fold higher than pirodavir” value ([6]; relative to reference compound pirodavir) was 2–4 fold.
For COc1ccc(N2Cc3ccccc3C2=O)cc1 [Compound A7, 2-(4-methoxyphenyl)isoindolin-1-one], the CC50 at 3 days [1, 8] was 318 ± 54.5 µM, the “BrCr SI” value [2] was 44 and the EC50 [2] was 7.27 ± 0.86 µM. For the same molecule, the “H SI” value [3] was 34, the EC50 [3] was 9.35 ± 1.44 µM and the “Shenzhen98 SI” value [4] was 44. The EC50 [4] was 7.27 ± 0.86 µM, the “Jiangsu52 SI” value [5] was 40 and the EC50 [5] was 7.92 ± 0.86 µM. It also gave an EC50 [6] of under 10 µM.
In the case of CCCNc1ccc2c(c1)C(=O)N(c1ccc(OC)cc1)C2 [Compound B1, 2-(4-methoxyphenyl)-6-(propylamino)isoindolin-1-one], the CC50 at 3 days [1, 8] is reported as 68.4 ± 5.72 µM, the “BrCr SI” value [2] is reported as 43 and the EC50 [2] is reported as 1.59 ± 0.35 µM. For the same molecule, the “H SI” value [3] was 13, the EC50 [3] was 5.41 ± 0.63 µM and the “Shenzhen98 SI” value [4] was 43. The EC50 [4] was 1.59 ± 0.35 µM, the “Jiangsu52 SI” value [5] was 43 and the EC50 [5] was 1.59 ± 0.43 µM. The EC50 [6] was under 10 µM.
With O=C1c2cc(-c3ccccc3)ccc2CN1c1ccc(Cl)cc1 [Compound D1] the CC50 at 3 days [1, 8] was 115 µM, the “BrCr SI” value [2] was “/ (/ represents selectivity index (SI) value of less than 10)” and the “H SI” value [3] was “/ (/ represents selectivity index (SI) value of less than 10)”. For the same molecule, the EC50 [3] was 66.7 µM, the “Shenzhen98 SI” value [4] was “/ (/ represents selectivity index (SI) value of less than 10)” and the “Jiangsu52 SI” value [5] was 2. The EC50 [5] was 56.5 ± 14.5 µM.
For O=C1c2cc(Nc3ccccc3)ccc2CN1c1ccc(Cl)cc1 [Compound D2], the CC50 at 3 days [1, 8] was 115 µM, the “BrCr SI” value [2] was “/ (/ represents selectivity index (SI) value of less than 10)” and the EC50 [2] was 19.6 ± 3.77 µM. The “H SI” value [3] was “/ (/ represents selectivity index (SI) value of less than 10)”, the EC50 [3] was 19.6 ± 3.77 µM and the “Shenzhen98 SI” value [4] was “/ (/ represents selectivity index (SI) value of less than 10)”. For the same molecule, the EC50 [4] was 19.8 ± 3.4 µM, the “Jiangsu52 SI” value [5] was “/ (/ represents selectivity index (SI) value of less than 10)” and the EC50 [5] was 15.1 ± 3.23 µM. For the same molecule, the “fold loss in activity” value ([6]; against four in vitro models, relative to A3) was 10 fold.
For CN1CCN(c2ccc3c(c2)C(=O)N(c2ccc(Cl)cc2)C3)CC1 [Compound D3, 6-(4-methylpiperazin)-2-(4-chlorophenyl)-isoindolin-1-one], the CC50 at 3 days [1] was 42.4 ± 5.47 µM, the “BrCr SI” value [2] was 16 and the EC50 [2] was 2.71 ± 0.35 µM. The “H SI” value [3] was 20, the EC50 [3] was 2.09 ± 0.54 µM and the “Shenzhen98 SI” value [4] was 11. The EC50 [4] was 3.73 ± 0.78 µM, the “Jiangsu52 SI” value [5] was 32 and the EC50 [5] was 1.29 ± 0.33 µM. For the same molecule, the EC50 [6] was under 10 µM.
In the case of COc1ccc(C(=O)Nc2ccc(Br)cc2)cc1N [N-pheylbenzoamide hit, 3-amino-N-(4-bromophenyl)-4-methoxybenzamide], the SI ([7]; Figure 1) is listed as 51-110, the IC50 ([7]; Figure 1, multiple virus strains, read-out: Anti-EV71 IC50) is listed as 5.7 to 12 µM and the anti-EV-A71 activity ([7]; against multiple virus strains) is listed as “moderate anti-EV-A71 activity”.
With CCOC(=O)c1ccc(OCCC2CCN(c3ccc(C)nn3)CC2)cc1 [pirodavir, reference compound] the CC50 at 3 days [1, 8] was 33.3 µM, the “BrCr SI” value [2] was 88 and the EC50 [2] was 0.38 ± 0.04 µM. The “H SI” value [3] was 44, the EC50 [3] was 0.76 ± 0.09 µM and the “Shenzhen98 SI” value [4] was 67. For the same molecule, the EC50 [4] was 0.5 ± 0.06 µM, the “Jiangsu52 SI” value [5] was 54 and the EC50 [5] was 0.62 ± 0.1 µM. It also gave an EC50 [6] of 0.38 to 0.76 µM.
